What all share (format): biochemical
In one assay the target is T1, Recombinant human TRKB (Homo sapiens, UniProt Q16620).
T1 construct: purchased Carna Biosciences
The assay can be described thus: In vitro activity test on TRKB kinase (HTRF KinEASE TK). Particulars: 4.77 μM ATP, 50 min. On the procedure:
(§1) Biological Test Example 1 In Vitro Activity Test on TRKA, TRKB, TRKC Kinase
(§2) Recombinant human TRKA, TRKB, TRKC proteins were purchased from Carna Biosciences. HTRF KinEASE TK kit was purchased from Cisbio Bioassays. Synergy Neo 2 of Biotek was used to read the plate.
(§3) The tested compound was subjected to 3-fold serial dilution to reach a final concentration of 1 μM to 0.05 nM (10 concentrations), duplicates for each concentration; and the DMSO concentration in the detection reaction was 1%.
0.037 ng/μL TRKB protein kinase, 1 μM TK Substrate-biotin polypeptide substrate, 4.77 μM ATP, 1× enzymatic buffer, 5 mM MgCl2, and 1 mM DTT. The detection plate was White Proxiplate 384-Plus plate (PerkinElmer), and incubated at room temperature for 50 min, and the assay volume was 10 μL.
(§4) 10 μL of detection reagent was added to the plate (containing 0.125 μM SA-XL665 and 5 μL 1×TK-Antibody) and incubated overnight at room temperature, and Synergy Neo 2 was used to read the plate.
(§5) The 665/620 Ratio was converted according to the following formula into inhibition rate (%)=(1−Ratiotest/Ratiomax)×100%. Ratiomax was a positive control without tested compound, and Ratiotest was the value of each concentration of different compounds. IC50 (nM) data was obtained by 4 parameter curve fitting (see Table 1).
For orientation: Time-resolved FRET reads energy transfer from a long-lived donor to a nearby acceptor.

The target of assay [1] is T2, recombinant human TRKA (G595R) (Homo sapiens, UniProt P04629, G595R).
T2 construct: purchased SignalChem
T2 sequence (P04629 33-796 G595R): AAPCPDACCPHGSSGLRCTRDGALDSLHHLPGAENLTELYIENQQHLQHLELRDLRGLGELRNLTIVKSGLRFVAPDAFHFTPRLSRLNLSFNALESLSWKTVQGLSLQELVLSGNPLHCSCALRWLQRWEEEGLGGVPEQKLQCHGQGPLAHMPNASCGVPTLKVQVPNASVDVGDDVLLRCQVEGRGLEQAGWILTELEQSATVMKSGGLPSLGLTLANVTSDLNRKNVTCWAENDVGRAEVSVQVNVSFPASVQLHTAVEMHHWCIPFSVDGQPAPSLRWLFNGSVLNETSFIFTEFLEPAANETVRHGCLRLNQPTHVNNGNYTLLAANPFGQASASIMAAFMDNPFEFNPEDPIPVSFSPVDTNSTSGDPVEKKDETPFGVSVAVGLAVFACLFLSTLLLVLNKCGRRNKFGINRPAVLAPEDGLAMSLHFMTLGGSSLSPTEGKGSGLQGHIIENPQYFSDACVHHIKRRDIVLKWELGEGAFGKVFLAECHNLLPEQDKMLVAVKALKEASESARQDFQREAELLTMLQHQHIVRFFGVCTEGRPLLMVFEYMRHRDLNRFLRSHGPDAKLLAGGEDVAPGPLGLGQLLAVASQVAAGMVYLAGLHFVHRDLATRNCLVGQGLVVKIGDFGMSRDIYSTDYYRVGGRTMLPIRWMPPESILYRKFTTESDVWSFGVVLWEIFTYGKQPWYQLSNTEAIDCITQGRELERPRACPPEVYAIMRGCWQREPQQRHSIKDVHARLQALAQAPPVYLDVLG
Kind of assay: In vitro activity test on mutant TRKA (G595R) (HTRF KinEASE TK). Particulars: 4.5 μM ATP, 30 min. On the procedure: (§6) Biological Test Example 2 In Vitro Activity Test on Mutant TRKA (G595R), TRKA (G667C) and TRKC (G623R)
(§7) The recombinant human TRKA (G595R), TRKA (G667C) and TRKC (G623R) proteins were purchased from SignalChem. HTRF kinEASE TK kit was purchased from CisbioBioassays. Synergy Neo 2 of Biotek was used to read the plate.
(§8) The tested compound was subjected to 4-fold serial dilution to reach a final concentration of 1 μM to 0.004 nM (10 concentrates), duplicates for each concentration; and 1% DMSO was present in the detection reaction.
0.12 ng/μL TRKA (G595R) kinase, 1 μM TK Substrate-biotin polypeptide substrate, 4.5 μM ATP, 1× enzymatic buffer, 5 mM MgCl2, and 1 mm DTT. The detection plate was White Proxiplate384-Plus plate (PerkinElmer), and incubated at room temperature for 30 min, and the assay volume was 10 μL.
as §4
(§9) The value of 665/620 Ratio minus the value of negative control wells without enzyme, then the obtained value was converted according to the following formula into inhibition rate (%)=(1−Ratiotest/Ratiomax)×100%. Ratiomax was a positive control without tested compound, and Ratiotest was the value of each concentration of different compounds. IC50 (nM) data was obtained by 4 parameter curve fitting (see Table 1).

For assay [2], the target named is T3, recombinant human TRKA (G667C) (Homo sapiens, UniProt P04629, G667C).
T3 construct: purchased SignalChem
T3 sequence (P04629 33-796 G667C): as the sequence (P04629 33-796 G595R) above, with R563G, G635C counted along it
Kind of assay: In vitro activity test on mutant TRKA (G667C) (HTRF KinEASE TK). Particulars: 5.5 μM ATP, 30 min. On the procedure: as §6, §7, §8
0.026 ng/μL TRKA (G667C) kinase, 1 μM TK Substrate-biotin polypeptide substrate, 5.5 μm ATP, 1× enzymatic buffer, 5 mM MgCl2, and 1 mM DTT. The detection plate was White Proxiplate 384-Plus plate (PerkinElmer), and incubated at room temperature for 30 min, the assay volume was 10 μL.
as §4, §9

Another assay deals with T4, Recombinant human TRKC (Homo sapiens, UniProt Q16288).
T4 construct: purchased Carna Biosciences
T4 sequence (Q16288 32-839): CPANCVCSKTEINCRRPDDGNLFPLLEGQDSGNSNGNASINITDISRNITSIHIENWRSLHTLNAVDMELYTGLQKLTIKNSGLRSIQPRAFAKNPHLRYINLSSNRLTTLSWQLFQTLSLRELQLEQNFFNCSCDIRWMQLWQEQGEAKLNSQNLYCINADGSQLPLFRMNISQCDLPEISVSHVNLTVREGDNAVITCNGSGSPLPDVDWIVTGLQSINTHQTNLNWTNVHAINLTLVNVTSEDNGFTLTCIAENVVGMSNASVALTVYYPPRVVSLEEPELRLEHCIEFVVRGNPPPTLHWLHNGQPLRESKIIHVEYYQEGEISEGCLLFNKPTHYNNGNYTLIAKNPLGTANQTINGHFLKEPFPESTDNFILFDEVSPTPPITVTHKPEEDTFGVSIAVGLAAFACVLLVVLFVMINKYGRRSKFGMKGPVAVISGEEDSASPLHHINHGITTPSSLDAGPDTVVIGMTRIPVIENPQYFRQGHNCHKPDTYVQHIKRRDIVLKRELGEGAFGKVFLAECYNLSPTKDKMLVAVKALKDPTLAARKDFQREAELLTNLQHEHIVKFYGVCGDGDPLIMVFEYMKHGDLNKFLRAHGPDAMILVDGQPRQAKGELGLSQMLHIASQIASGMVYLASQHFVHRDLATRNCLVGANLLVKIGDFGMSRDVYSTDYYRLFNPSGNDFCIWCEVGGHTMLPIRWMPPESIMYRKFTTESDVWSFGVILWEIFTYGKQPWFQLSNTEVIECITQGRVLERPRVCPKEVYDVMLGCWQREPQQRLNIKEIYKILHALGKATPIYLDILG
The assay can be described thus: In vitro activity test on TRKC kinase (HTRF KinEASE TK). Particulars: 25.64 μM ATP, 40 min. On the procedure: as §1, §2, §3
0.037 ng/μL TRKC protein kinase, 1 μM TK Substrate-biotin polypeptide substrate, 25.64 μM ATP, 1× enzymatic buffer, 5 mM MgCl2, and 1 mM DTT. The detection plate was White Proxiplate 384-Plus plate (PerkinElmer), and incubated at room temperature for 40 min, and the assay volume was 10 μL.
as §4, §5

Another assay deals with T5, Recombinant human TRKA (Homo sapiens, UniProt P04629).
T5 construct: purchased Carna Biosciences
T5 sequence (P04629 33-796): as the sequence (P04629 33-796 G595R) above, with R563G counted along it
The assay can be described thus: In vitro activity test on TRKA kinase (HTRF KinEASE TK). As to conditions: 14.68 μM ATP, 40 min. On the procedure: as §1, §2, §3
0.2 ng/μL TRKA protein kinase, 1 μM TK Substrate-biotin polypeptide substrate, 14.68 μM ATP, 1× enzymatic buffer, 5 mM MgCl2, and 1 mM DTT. The detection plate was White Proxiplate384-Plus plate (PerkinElmer), and incubated at room temperature for 40 min, and the assay volume was 10 μL.
as §4, §5

Structures are written as SMILES. Where only a bound is given, the exact number is not on record here.

T1 sequence (Q16620 32-822): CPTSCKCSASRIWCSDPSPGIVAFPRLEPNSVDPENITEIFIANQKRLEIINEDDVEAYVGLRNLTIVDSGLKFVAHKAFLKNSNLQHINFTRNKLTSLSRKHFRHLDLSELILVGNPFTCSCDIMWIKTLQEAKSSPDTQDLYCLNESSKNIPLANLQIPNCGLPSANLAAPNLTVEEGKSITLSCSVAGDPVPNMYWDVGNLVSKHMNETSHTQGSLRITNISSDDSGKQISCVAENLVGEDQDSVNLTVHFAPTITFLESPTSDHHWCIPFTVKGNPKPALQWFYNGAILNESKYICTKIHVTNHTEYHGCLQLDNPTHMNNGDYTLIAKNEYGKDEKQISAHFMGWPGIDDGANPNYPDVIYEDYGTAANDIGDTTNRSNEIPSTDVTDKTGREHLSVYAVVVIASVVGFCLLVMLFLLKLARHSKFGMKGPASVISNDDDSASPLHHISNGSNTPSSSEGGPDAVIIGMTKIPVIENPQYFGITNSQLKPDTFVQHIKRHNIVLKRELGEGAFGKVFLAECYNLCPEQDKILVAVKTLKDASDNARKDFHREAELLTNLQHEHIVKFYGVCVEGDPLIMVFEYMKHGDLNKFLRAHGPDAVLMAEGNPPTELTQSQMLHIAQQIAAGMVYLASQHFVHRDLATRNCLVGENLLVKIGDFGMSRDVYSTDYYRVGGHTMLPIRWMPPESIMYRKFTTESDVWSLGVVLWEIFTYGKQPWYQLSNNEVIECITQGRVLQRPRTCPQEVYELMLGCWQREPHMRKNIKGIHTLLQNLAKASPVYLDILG

Turning to `OC1CCC(Nc2ccnc3ccc(N4C[C@@H](F)C[C@@H]4c4cc(F)ccc4F)nc23)C1` (stereo partly drawn) [Example 2, 3-((6-((2R,4S)-2-(2,5-difluorophenyl)-4-fluoropyrrolidin-1-yl)-1,5-naphthyridin-4-yl)amino)cyclopentan-1-ol], the IC50 (at Recombinant human TRKB; in assay [1]; in assay [2]; on Recombinant human TRKC; at Recombinant human TRKA) was less than 10 nM in each case.

As to `NC(=O)CN1CCC(n2cc(-c3c(F)cnc4ccc(N5C[C@@H](F)C[C@@H]5c5cc(F)ccc5F)nc34)cn2)CC1` [Example 74, 2-(4-(4-(6-((2R,4S)-2-(2,5-difluorophenyl)-4-fluoropyrrolidin-1-yl)-3-fluoro-1,5-naphthyridin-4-yl)-1H-pyrazol-1-yl)piperidin-1-yl)acetamide], the IC50 (commonly the concentration needed to halve the response being measured) on Recombinant human TRKB is less than 1 nM; in assay [1], less than 10 nM; in assay [2], less than 10 nM; on Recombinant human TRKC, less than 1 nM; on Recombinant human TRKA, less than 1 nM.

In the case of `O=S(=O)(Nc1ccnc2ccc(N3C[C@@H](F)C[C@@H]3c3cc(F)ccc3F)nc12)N1CC[C@H](O)C1` [Example 69, (S)—N-(6-((2R,4S)-2-(2,5-difluorophenyl)-4-fluoropyrrolidin-1-yl)-1,5-naphthyridin-4-yl)-3-hydroxypyrrolidin-1-sulfonamide], the IC50 is less than 1 nM at Recombinant human TRKB; less than 1 nM in assay [1]; less than 10 nM in assay [2]; less than 1 nM on Recombinant human TRKC; less than 1 nM on Recombinant human TRKA.

With `OC[C@@H](O)CN1CCC(n2cc(-c3c(Cl)cnc4ccc(N5C[C@@H](F)C[C@@H]5c5cc(F)ccc5F)nc34)cn2)CC1` [Example 44, (S)-3-(4-(4-(3-chloro-6-((2R,4S)-2-(2,5-difluorophenyl)-4-fluoropyrrolidin-1-yl)-1,5-naphthyridin-4-yl)-1H-pyrazol-1-yl)piperidin-1-yl)propane-1,2-diol], the IC50 on Recombinant human TRKB is less than 1 nM; in assay [1], less than 10 nM; in assay [2], less than 1 nM; on Recombinant human TRKC it was less than 1 nM; on Recombinant human TRKA it was less than 1 nM.

Consider `O=S1(=O)CCC(n2cc(-c3c(Cl)cnc4ccc(N5C[C@@H](F)C[C@@H]5c5cc(F)ccc5F)nc34)cn2)CC1` [Example 47, 4-(4-(3-chloro-6-((2R,4S)-2-(2,5-difluorophenyl)-4-fluoropyrrolidin-1-yl)-1,5-naphthyridin-4-yl)-1H-pyrazol-1-yl)tetrahydro-2H-thiopyran 1,1-dioxide], for which the IC50 is less than 1 nM on Recombinant human TRKB; less than 10 nM in assay [1]; less than 1 nM in assay [2]; less than 1 nM on Recombinant human TRKC; less than 1 nM on Recombinant human TRKA.

Turning to `OC1CCC(Nc2ccnc3ccc(N4CCC[C@@H]4c4cc(F)ccc4F)nc23)C1` (stereo partly drawn) [Example 1, 3-((6-((R)-2-(2,5-difluorophenyl)pyrrolidin-1-yl)-1,5-naphthyridin-4-yl)amino)cyclopentane-1-ol], the IC50 at Recombinant human TRKB was less than 50 nM; in assay [1], less than 50 nM; at Recombinant human TRKC, less than 10 nM; at Recombinant human TRKA, less than 10 nM.

With `O[C@H]1CCN(c2nc(-c3ncnc4ccc(N5C[C@@H](F)C[C@@H]5c5cc(F)ccc5F)nc34)no2)C1` [Example 68, (S)-1-(3-(6-((2R,4S)-2-(2,5-difluorophenyl)-4-fluoropyrrolidin-1-yl)pyrido[3,2-d]pyrimidin-4-yl)-1,2,4-oxadiazol-5-yl)pyrrolidin-3-ol], the concentration for half-maximal inhibition (IC50) on Recombinant human TRKB was less than 10 nM; in assay [1] it was less than 10 nM; on Recombinant human TRKC, less than 10 nM; at Recombinant human TRKA, less than 1 nM.

As for `CC1(O)CCN(c2ncc(-c3ncnc4ccc(N5C[C@@H](F)C[C@@H]5c5cc(F)ccc5F)nc34)cn2)C1` (stereo partly drawn) [Example 85, 1-(5-(6-((2R,4S)-2-(2,5-difluorophenyl)-4-fluoropyrrolidin-1-yl)pyrido[3,2-d]pyrimidine-4-yl)pyrimidin-2-yl)-3-methylpyrrolidin-3-ol], the 50% inhibitory concentration (IC50) on Recombinant human TRKB was less than 1 nM; in assay [1] it was less than 10 nM; on Recombinant human TRKC, less than 1 nM; on Recombinant human TRKA, less than 1 nM.

Take `Fc1ccc(F)c([C@H]2C[C@H](F)CN2c2ncc3ncnc(-c4cnn(C5CCNCC5)c4)c3n2)c1` [Example 76, 2-((2R,4S)-2-(2,5-difluorophenyl)-4-fluoropyrrolidin-1-yl)-8-(1-(piperidin-4-yl)-1H-pyrazol-4-yl)pyrimido[5,4-d]pyrimidine]: the half-inhibitory concentration (IC50) was less than 10 nM on Recombinant human TRKB, less than 10 nM in assay [1], less than 10 nM on Recombinant human TRKC and less than 1 nM at Recombinant human TRKA.

Turning to `Fc1ccc(F)c([C@H]2C[C@H](F)CN2c2ccc3ncnc(-c4cn(C5CCNCC5)nn4)c3n2)c1` [Example 86, 6-((2R,4S)-2-(2,5-Difluorophenyl)-4-fluoropyrrolidin-1-yl)-4-(1-(piperidin-4-yl)-1H-1,2,3-triazol-4-yl)pyrido[3,2-d]pyrimidine], the concentration for half-maximal inhibition (IC50) is less than 10 nM at Recombinant human TRKB, less than 10 nM in assay [1], less than 1 nM on Recombinant human TRKC and less than 1 nM at Recombinant human TRKA.

For the compound `O=C1N(c2ccnc3ccc(N4C[C@@H](F)C[C@@H]4c4cc(F)ccc4F)nc23)CC12CCNCC2` [Example 94, 2-(6-((2R,4S)-2-(2,5-difluorophenyl)-4-fluoropyrrolidin-1-yl)-1,5-naphthyridin-4-yl)-2,7-diazaspiro[3.5] nonane-1-one], the IC50 (at Recombinant human TRKB; in assay [1]; on Recombinant human TRKC; on Recombinant human TRKA) was less than 1 nM throughout.

In the case of `Fc1ccc(Cl)c([C@H]2CCCN2c2ccc3ncc(F)c(-c4cnn(C5CCNCC5)c4)c3n2)c1` [Example 89, (R)-2-(2-(2-Chloro-5-fluorophenyl)pyrrolidin-1-yl)-7-fluoro-8-(1-(piperidin-4-yl)-1H-pyrazol-4-yl)-1,5-naphthyridine], the IC50 at Recombinant human TRKB was less than 10 nM; in assay [1], less than 1 nM; at Recombinant human TRKC, less than 10 nM; on Recombinant human TRKA it was less than 1 nM.

Regarding `O=C(O)[C@H]1CCN(c2ncc(-c3ncnc4ccc(N5C[C@@H](F)C[C@@H]5c5cc(F)ccc5F)nc34)cn2)C1` [Example 87, (S)-1-(5-(6-((2R,4S)-2-(2,5-difluorophenyl)-4-fluoropyrrolidin-1-yl)pyrido[3,2-d]primidin-4-yl)pyrimidin-2-yl)pyrrolidin-3-carboxylic acid], the IC50 (at Recombinant human TRKB; in assay [1]; on Recombinant human TRKC; on Recombinant human TRKA) was less than 1 nM throughout.

For the compound `O=c1n(-c2ccnc3ccc(N4C[C@@H](F)C[C@@H]4c4cc(F)ccc4F)nc23)ccn1C1CCNCC1` [Example 95, 1-(6-((2R,4S)-2-(2,5-difluorophenyl)-4-fluoropyrrolidin-1-yl)-1,5-naphthyridin-4-yl)-3-(piperidin-4-yl)-1,3-dihydro-2H-imidazol-2-one], the IC50 was less than 10 nM at Recombinant human TRKB, less than 1 nM in assay [1], less than 1 nM on Recombinant human TRKC and less than 1 nM on Recombinant human TRKA.

`Fc1cnc(Cl)c([C@H]2CCCN2c2ccc3ncc(F)c(-c4cnn(C5CCNCC5)c4)c3n2)c1` [Example 90, (R)-2-(2-(2-Chloro-5-fluoropyridin-3-yl)pyrrolidin-1-yl)-7-fluoro-8-(1-(piperidin-4-yl)-1H-pyrazol-4-yl)-1,5-naphthyridine]: the half-maximal inhibitory concentration (IC50) on Recombinant human TRKB was less than 10 nM; in assay [1] it was less than 1 nM; on Recombinant human TRKC, less than 10 nM; at Recombinant human TRKA it was less than 1 nM.

These data come from US20220017512A1 (SHANGHAI ENNOVABIO PHARMACEUTICALS CO., LTD., priority 2018, published 2022).
